In patent US8309586B2, “Glucokinase activators and pharmaceutical compositions containing the same as an active ingredient” (LG Life Sciences Ltd., priority 2007, dated 2012):

Test system: Glucokinase known as hexokinase IV (human GK isoform 1, pancreas form and human GK isoform 2, liver form)
Test: Glucokinase enzymatic activity assay (G6PDH-coupled, NADH absorbance at 340 nm)
Format: biochemical
Conditions: 5 mM glucose, 1 mM ATP, 37 nM GK, 10 min at room temperature
Procedure: Glucokinase known as hexokinase IV (human GK isoform 1, pancreas form and human GK isoform 2, liver form) was cloned into an expression vector pET15 fx (Novagen Co.), transformed to E. coli BL21 (DE3) (Invitrogen Co.) strain, expressed, and purified using a nickel column. Then, the glucokinase obtained from dialysis was used in the following assay.
Glucokinase assay was performed by measuring absorbance according to the conventional manner. Briefly speaking, glucokinase converts the substrate glucose to glucose-6-phosphate under certain conditions, and glucose-6-phosphate dehydrogenase irreversibly converts glucose-6-phosphate to gluconate-6-phosphate. During this procedure, NADH is formed, and its absorbance is measured to calculate the enzymatic activity.
In the measurement of the enzymatic activity, each compound was diluted by two-fold from the maximum to the minimum concentrations, and 2 μl of each solution was added to 96 well UV plate (BD bioscience). 60 μl of the first mixture (final concentrations 25 mM Hepes, 25 mM KCl, 2 mM MgCl2, 1 mM DTT) was added, and thoroughly mixed. 38 μl of the enzyme mixture (final concentrations 1 mM ATP, 1 mM NAD, 5 mM glucose, 0.85U G6PDH, 37 nM GK) was added (final volume 100 μl), and the mixture was reacted for 10 min at room temperature. The absorbance of NADH was measured at 340 nm using a UV spectrometer (Molecular Device).
The enzyme activating abilities of the compounds according to the present invention are represented as AC1.5 (the compound concentration at which the enzymatic activity is increased by 1.5 times, nM), which is in the range of 0.001 uM to 30 uM or less, preferably 0.001 uM to 10 uM, more preferably 0.001 uM to 1 uM.

| Structure (SMILES) | AC1.5 (the compound concentration at which the enzymatic activity is increased by 1.5 times) [nM] |
| --- | --- |
| Cc1cc(NC2CCOCC2)c2[nH]c(C3=N[C@H](CC(=O)O)CS3)cc2c1 [Example 62, {(R)-2-[5-methyl-7-(tetrahydro-pyran-4-ylamino)-1H-indol-2-yl]-4,5-dihydro-thiazol-4-yl}-acetic acid] | 36 |
| CCOC(=O)CC[C@@H]1CSC(c2cc3cc(OC(F)(F)F)cc(NC4CCCC4)c3[nH]2)=N1 [Example 168, 3-[(R)-2-(7-cyclopentylamino-5-trifluoromethoxy-1H-indol-2-yl)-4,5-dihydro-thiazol-4-yl]-propionic acid ethyl ester] | 15 |
| CS(=O)(=O)CC[C@@H]1CSC(c2cc3cccc(NC4CCOCC4)c3[nH]2)=N1 [Example 145, {2-[(R)-4-(2-methanesulfonyl-ethyl)-4,5-dihydro-thiazol-2-yl]-1H-indol-7-yl}-(tetrahydro-pyran-4-yl)-amine] | 138 |
| O=C(C[C@@H]1CSC(c2cc3cccc(NC4CCOCC4)c3[nH]2)=N1)N1CCOCC1 [Example 93, 1-morpholin-4-yl-2-{(R)-2-[7-(tetrahydro-pyran-4-ylamino)-1H-indol-2-yl]-4,5-dihydro-thiazol-4-yl}-ethanone] | 239 |
| CCOC(=O)c1c(C)ncn1CC[C@@H]1CSC(c2cc3cc(Cl)cc(NC4CCCC4)c3[nH]2)=N1 [Example 109, 3-{2-[(R)-2-(5-chloro-7-cyclopentylamino-1H-indol-2-yl)-4,5-dihydro-thiazol-4-yl]-ethyl}-5-methyl-3H-imidazole-4-carboxylic acid ethyl ester] | 26 |
| O=C(O)C[C@@H]1CSC(c2cc3cc(Br)cc(NC4CCOCC4)c3[nH]2)=N1 [Example 35, {(R)-2-[5-bromo-7-(tetrahydro-pyran-4-ylamino)-1H-indol-2-yl]-4,5-dihydro-thiazol-4-yl}-acetic acid] | 6 |
| Cc1ncn(CC[C@@H]2CSC(c3cc4cc(Cl)cc(NC5CCCC5)c4[nH]3)=N2)c1C(=O)O [Example 110, 3-{2-[(R)-2-(5-chloro-7-cyclopentylamino-1H-indol-2-yl)-4,5-dihydro-thiazol-4-yl]-ethyl}-5-methyl-3H-imidazole-4-carboxylic acid] | 30 |
| CCNC(=O)C[C@@H]1CSC(c2cc3cccc(NC4CCCC4)c3[nH]2)=N1 [Example 89, 2-[(R)-2-(7-cyclopentylamino-1H-indol-2-yl)-4,5-dihydro-thiazol-4-yl]-N-ethyl-acetamide] | 32 |
| O=C(C[C@@H]1CSC(c2cc3cc(Cl)cc(NC4CCCC4)c3[nH]2)=N1)NCCN1CCOCC1 [Example 74, 2-[(R)-2-(5-chloro-7-cyclopentylamino-1H-indol-2-yl)-4,5-dihydro-thiazol-4-yl]-N-(2-morpholin-4-yl-ethyl)-acetamide] | 14 |
| Fc1cc(NC2CCCC2)c2[nH]c(C3=N[C@H](CCN4CCOCC4)CS3)cc2c1 [Example 126, cyclopentyl-{5-fluoro-2-[(R)-4-(2-morpholin-4-yl-ethyl)-4,5-dihydro-thiazol-2-yl]-1H-indol-7-yl}-amine] | 20 |
| NCC[C@@H]1CSC(c2cc3cc(F)cc(NC4CCCC4)c3[nH]2)=N1 [Example 124, {2-[(R)-4-(2-amino-ethyl)-4,5-dihydro-thiazol-2-yl]-5-fluoro-1H-indol-7-yl}-cyclopentyl-amine] | 24 |
| CN(C)CC[C@@H]1CSC(c2cc3cc(Cl)cc(NC4CCCC4)c3[nH]2)=N1 [Example 94, {5-chloro-2-[(R)-4-(2-dimethylamino-ethyl)-4,5-dihydro-thiazol-2-yl]-1H-indol-7-yl}-cyclopentyl-amine] | 15 |
| c1cc(NC2CCCC2)c2[nH]c(C3=N[C@H](CCN4CCOCC4)CS3)cc2c1 [Example 143, cyclopentyl-{2-[(R)-4-(2-morpholin-4-yl-ethyl)-4,5-dihydro-thiazol-2-yl]-1H-indol-7-yl}-amine] | 37 |
| O=C1CCCN1CC[C@@H]1CSC(c2cc3cc(Cl)cc(NC4CCCC4)c3[nH]2)=N1 [Example 111, 1-{2-[(R)-2-(5-chloro-7-cyclopentylamino-1H-indol-2-yl)-4,5-dihydro-thiazol-4-yl]-ethyl}-pyrrolidin-2-one] | 11 |
| c1ccc(Oc2cccc3cc(C4=N[C@H](CCN5CCOCC5)CS4)[nH]c23)cc1 [Example 176, 2-[(R)-4-(2-morpholin-4-yl-ethyl)-4,5-dihydro-thiazol-2-yl]-7-phenoxy-1H-indole] | 178 |
| Clc1cc(NC2CCOCC2)c2[nH]c(C3=N[C@H](CCN4CCN(c5cnccn5)CC4)CS3)cc2c1 [Example 122, (5-chloro-2-{(R)-4-[2-(2,3,5,6-tetrahydro-[1,2′]bipyrazinyl-4-yl)-ethyl]-4,5-dihydro-thiazol-2-yl}-1H-indol-7-yl)-(tetrahydropyran-4-yl)-amine] | 60 |
| O=C(C[C@@H]1CSC(c2cc3cc(Cl)cc(NC4CCCC4)c3[nH]2)=N1)NCCCN1CCOCC1 [Example 75, 2-[(R)-2-(5-chloro-7-cyclopentylamino-1H-indol-2-yl)-4,5-dihydro-thiazol-4-yl]-N-(3-morpholin-4-yl-propyl)-acetamide] | 21 |
| CN1CCN(C(=O)C[C@@H]2CSC(c3cc4cc(Cl)cc(NC5CCCC5)c4[nH]3)=N2)CC1 [Example 78, 2-[(R)-2-(5-chloro-7-cyclopentylamino-1H-indol-2-yl)-4,5-dihydro-thiazol-4-yl]-1-(4-methyl-piperazin-1-yl)-ethanone] | 25 |
| O=C(C[C@@H]1CSC(c2cc3cc(Cl)cc(NC4CCCC4)c3[nH]2)=N1)N1CCCCC1 [Example 81, 2-[(R)-2-(5-chloro-7-cyclopentylamino-1H-indol-2-yl)-4,5-dihydro-thiazol-4-yl]-1-piperidin-1-yl-ethanone] | 6 |
| O=C(C[C@@H]1CSC(c2cc3cc(Cl)cc(NC4CCCC4)c3[nH]2)=N1)N1CCC(O)C1 (stereo partly drawn) [Example 80, 2-[(R)-2-(5-chloro-7-cyclopentylamino-1H-indol-2-yl)-4,5-dihydro-thiazol-4-yl]-1-(3-hydroxy-pyrrolidin-1-yl)-ethanone] | 21 |
| CN1CCN(C(=O)C[C@@H]2CSC(c3cc4cc(F)cc(NC5CCCC5)c4[nH]3)=N2)CC1 [Example 84, 2-[(R)-2-(7-cyclopentylamino-5-fluoro-1H-indol-2-yl)-4,5-dihydro-thiazol-4-yl]-1-(4-methyl-piperazin-1-yl)-ethanone] | 27 |
| OC[C@@H]1CSC(c2cc3cc(Br)cc(NC4CCOCC4)c3[nH]2)=N1 [Example 11, {(R)-2-[5-bromo-7-(tetrahydro-pyran-4-ylamino)-1H-indol-2-yl]-4,5-dihydro-thiazol-4-yl}-methanol] | 14 |
| OCC[C@@H]1CSC(c2cc3cc(F)cc(NC4CCOCC4)c3[nH]2)=N1 [Example 41, 2-{(R)-2-[5-fluoro-7-(tetrahydro-pyran-4-ylamino)-1H-indol-2-yl]-4,5-dihydro-thiazol-4-yl}-ethanol] | 17 |
| O=S1(=O)CCN(CC[C@@H]2CSC(c3cc4cc(Cl)cc(NC5CCCC5)c4[nH]3)=N2)CC1 [Example 105, (5-chloro-2-{(R)-4-[2-(1,1-dioxo-thiomorpholin-4-yl)-ethyl]-4,5-dihydro-thiazol-2-yl}-1H-indol-7-yl)-cyclopentyl-amine] | 6 |
| OCCC[C@@H]1CSC(c2cc3cc(Cl)cc(NC4CCOCC4)c3[nH]2)=N1 [Example 152, 3-{(R)-2-[5-chloro-7-(tetrahydro-pyran-4-ylamino)-1H-indol-2-yl]-4,5-dihydro-thiazol-4-yl}-propan-1-ol] | 14 |
| CCOC(=O)C[C@@H]1CSC(c2cc3cc(Cl)cc(NC4CCCC4)c3[nH]2)=N1 [Example 28, [(R)-2-(5-chloro-7-cyclopentylamino-1H-indol-2-yl)-4,5-dihydro-thiazol-4-yl]acetic acid ethyl ester] | 8 |
